Test results taken from PubChem BioAssay AID2060902 (Molecular Pharmacology Branch, DTP, NCI, 2025).

Tested on: 485368-065-R3-J5-PDC spheroids with HUVEC/MSC, viability
Test: Anticancer human tumor 485368-065-R3-J5-PDC patient-derived pancreatic carcinoma cell line growth inhibition [RAS]
Details: for IC50: curve of first compound; for viability, T/C: stronger effect = lower value
In short: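 Multi-cell-type spheroids: tumor cells plus HUVEC endothelial cells and mesenchymal stem cells. RAS-pathway inhibitors were combined with targeted agents, each dosed in half-log steps down from clinical Cmax, or from 10 microM when Cmax was unknown.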
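Further: spheroids exposed to agents for seven days before readout.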

With `CC(C)NCC(C(=O)N1CCN(c2ncnc3c2C(C)CC3O)CC1)c1ccc(Cl)cc1` (configuration not stated) + CCn1c(-c2cccnc2C(C)OC)c2c3cc(ccc31)N1CCOC(CC(NC(=O)C(C(C)C)N(C)C(=O)C3(F)CCN(C(=O)C#CC(C)(C)N(C)C)CC3)C(=O)N3CCCC(N3)C(=O)OCC(C)(C)C2)C1 the IC50 (second compound 0.000949 µM) was > 10 µM, the IC50 (second compound 0.003 µM) was > 10 µM and the IC50 (second compound 0.00949 µM) was > 10 µM. The IC50 (second compound 0.03 µM) was > 10 µM, the IC50 (second compound 0.0949 µM) was > 10 µM and the IC50 (second compound 0.3 µM) was > 10 µM. For the same molecule, the viability, T/C (second compound 0.000949 µM, first compound 0.0316 µM) was 102%, the viability, T/C (second compound 0.000949 µM, first compound 0.1 µM) was 99.4% and the viability, T/C (second compound 0.000949 µM, first compound 0.316 µM) was 95.9%. For the same molecule, the viability, T/C (second compound 0.000949 µM, first compound 1 µM) was 79.9%, the viability, T/C (second compound 0.000949 µM, first compound 3.16 µM) was 74.6% and the viability, T/C (second compound 0.000949 µM, first compound 10 µM) was 55.8%. It also gave a viability, T/C (second compound 0.003 µM, first compound 0.0316 µM) of 88.7%, a viability, T/C (second compound 0.003 µM, first compound 0.1 µM) of 94% and a viability, T/C (second compound 0.003 µM, first compound 0.316 µM) of 93.8%. For the same molecule, the viability, T/C (second compound 0.003 µM, first compound 1 µM) was 81.7%, the viability, T/C (second compound 0.003 µM, first compound 3.16 µM) was 81.4% and the viability, T/C (second compound 0.003 µM, first compound 10 µM) was 62.2%. For the same molecule, the viability, T/C (second compound 0.00949 µM, first compound 0.0316 µM) was 95.7%, the viability, T/C (second compound 0.00949 µM, first compound 0.1 µM) was 103% and the viability, T/C (second compound 0.00949 µM, first compound 0.316 µM) was 97%. It also gave a viability, T/C (second compound 0.00949 µM, first compound 1 µM) of 87.6%, a viability, T/C (second compound 0.00949 µM, first compound 3.16 µM) of 76.8% and a viability, T/C (second compound 0.00949 µM, first compound 10 µM) of 66.1%. It also gave a viability, T/C (second compound 0.03 µM, first compound 0.0316 µM) of 89.1%, a viability, T/C (second compound 0.03 µM, first compound 0.1 µM) of 104% and a viability, T/C (second compound 0.03 µM, first compound 0.316 µM) of 88.4%. The viability, T/C (second compound 0.03 µM, first compound 1 µM) was 84.7%, the viability, T/C (second compound 0.03 µM, first compound 3.16 µM) was 70.2% and the viability, T/C (second compound 0.03 µM, first compound 10 µM) was 58.6%. The viability, T/C (second compound 0.0949 µM, first compound 0.0316 µM) was 99.9%, the viability, T/C (second compound 0.0949 µM, first compound 0.1 µM) was 104% and the viability, T/C (second compound 0.0949 µM, first compound 0.316 µM) was 89.5%. The viability, T/C (second compound 0.0949 µM, first compound 1 µM) was 80.7%, the viability, T/C (second compound 0.0949 µM, first compound 3.16 µM) was 69.8% and the viability, T/C (second compound 0.0949 µM, first compound 10 µM) was 56.2%. For the same molecule, the viability, T/C (second compound 0.3 µM, first compound 0.0316 µM) was 98.7%, the viability, T/C (second compound 0.3 µM, first compound 0.1 µM) was 101% and the viability, T/C (second compound 0.3 µM, first compound 0.316 µM) was 90.7%. The viability, T/C (second compound 0.3 µM, first compound 1 µM) was 78.8%, the viability, T/C (second compound 0.3 µM, first compound 3.16 µM) was 70.3% and the viability, T/C (second compound 0.3 µM, first compound 10 µM) was 49.7%.
